Test system: HepG2 cells
Assay: Metabolism of model drug (fluorescein diacetate) by HepG2 cell hepatic tissue-type chip and excretion and accumulation of metabolites to bile canaliculus-like structure
Format: in vitro ADME, human
Details: for distribution of fluorescein metabolized by HepG2 cells (green fluorescence): 1 hour uptake, after washing twice
Experimental: (1) A culture medium containing fluorescein diacetate (FD) as a model drug at a concentration of 250 μg/mL was prepared, and 5 mL thereof was poured into a dish (60 mm in diameter ).
(2) Next, the hepatic tissue-type chip on day 7 of culturing produced using HepG2 cells in Example 1 was immersed in the FD-containing culture medium prepared in (1) and cultured for 1 hour, such that the FD was taken into the cells.
(3) Next, the chip was transferred into a new dish (diameter: 60 mm), into which 5 mL of Hank's Balanced Salt Solution (HBSS) was poured, and washed.
(4) Next, the hepatic tissue-type chip was transferred into a new dish (diameter 60 mm ) into which 5 mL of a fresh culture medium was poured, immersed in the culture medium, and cultured for 1 hour. The discharging of fluorescein in the cells after 1 hour was confirmed by observation with a phase contrast microscope and a fluorescence microscope (refer to FIG. 8(A) to FIG. 8(C)).
(1) HBSS containing fluorescein diacetate (FD) as a model drug at a concentration of 25 μg/mL was prepared, and 5 mL thereof was poured into a dish (60 mm in diameter).
(2) Next, on day 32 of culturing, the hepatic tissue-type chip produced using HepG2 cells in Example 3 was immersed in the FD-containing HBSS prepared in (1) and cultured for 1 hour such that the FD was taken into the cells.
(3) Next, the result was transferred into a new dish (diameter 60 mm) into which 5 mL of HBSS was poured, and washed.
(4) Next, the hepatic tissue-type chip was transferred into a new dish (diameter 60 mm) into which 5 mL of fresh HBSS was poured, immersed in HBSS, and cultured for 1 hour. The discharge of fluorescein in the cells after 1 hour was confirmed by observation with a phase contrast microscope and a fluorescence microscope (refer to FIG. 12A (phase contrast microscope image) and FIG. 12B (fluorescence microscope image)). […]

distribution of fluorescein metabolized by HepG2 cells (green fluorescence) (Example 2, chip on day 7 of culturing, FD 250 μg/mL in culture medium): uniformly distributed in the cytoplasm | distribution of fluorescein metabolized by HepG2 cells (green fluorescence) (Example 4, chip on day 32 of culturing, FD 25 μg/mL in HBSS): uniformly distributed in the cytoplasm | distribution of fluorescein metabolized by HepG2 cells (green fluorescence) (Example 10, chip on day 35 of culturing, FD 25 μg/mL in HBSS): uniformly distributed in the cytoplasm
SMILES: O=C1OC2(c3ccc(O)cc3Oc3cc(O)ccc32)c2ccccc21 [fluorescein]
excretion of fluorescein from the cells (Example 2, chip on day 7 of culturing, 1 hour further culture in fresh culture medium after washing): excreted and accumulated in the bile canaliculus-like structure | excretion of fluorescein from the cells (Example 4, chip on day 32 of culturing, 1 hour further culture in fresh HBSS after washing): excreted and accumulated in the bile canaliculus-like structure | excretion of fluorescein from the cells (Example 10, chip on day 35 of culturing, 1 hour further culture in fresh HBSS after washing): excreted and accumulated in the bile canaliculus-like structure

Source: patent US20210230526A1, “Cell enclosure device and use for same” (National Agriculture and Food Research Organization, priority 2016, published 2021)
